Reference: publication PMC11605291 (Frontiers in Pharmacology, 2024)

Test: Total radioactivity in plasma and whole blood (LSC), pharmacokinetics and blood-to-plasma ratio
Type: in vivo, human
[1] = total radioactivity in plasma, mean ± SD

Experimental: Six subjects were admitted to the clinical research center 1 day prior to dosing, with random urine and fecal samples collected as blank excretion controls. After fasting overnight for at least 10 h, a blank blood sample was collected after a regular breakfast (449 kcal, with ∼35% energy from fat) on Day 1. […] Scheduled collection of urine, feces, and blood samples, and safety monitoring proceeded until completion.
Venous blood samples were collected within 0.5 h prior to administration and at 0.5, 1, 1.5, 2, 3, 4, 6, 8, 12, 24, 36, 48, 72, and 96 h after administration. About 8 mL of blood was collected at each time point in the anticoagulant collection tube containing K2-EDTA. The centrifuged plasma was used for non-radioactive and radioactive pharmacokinetic and biotransformation (metabolite) analyses. In addition, about 2 mL of venous blood was collected within 0.5 h before administration and at 1, 4, 8, 12, 24, and 48 h after administration for whole blood radioactivity analysis. Additional 10 mL of venous blood for each time point was collected at 1, 4, 8, 12, 24, and 48 h after administration, and the plasma was obtained by centrifugation for biotransformation (metabolites) analysis. Urine and fecal samples were collected until 144 h (4 subjects) or 192 h (2 subjects) after administration.
Pharmacokinetic analysis was performed using Phoenix WinNonlin® software version 8.3. […] Descriptive statistics applied to parameters including maximum plasma concentration after administration (Cmax), the time to reach maximum plasma concentration after administration (Tmax), elimination rate constant (λz), area under the plasma concentration-time curve from the time 0 to the time of last quantifiable concentration (AUC0-t, obtained by the linear trapezoidal method), area under the plasma concentration-time curve from time 0 extrapolated to infinity (AUC0-∞, AUC0-∞ = AUC0-t + Ct/λ z ), half-life (t1/2, t1/2 = ln ([Lannutti et al., 2011])/λz), mean residence time (MRT, MRT = AUMC/AUC), apparent clearance (CL/F, CL/F = Dose/AUC0-∞), apparent volume of distribution based on terminal phase (Vz/F, Vz/F = Dose/(λz×AUC0-∞)).
Radioactivity was measured using an oxidative combustion apparatus and liquid scintillation counter (LSC). After the whole blood sample was vortexed thoroughly, two portions (about 0.5 g each) were weighed into the combustion boat, and after complete combustion by oxidative combustion apparatus, [^14C]carbon dioxide generated from the combustion of the samples was captured by scintillation solution and measured by liquid scintillation counter. After plasma samples were fully vortexed, one portion (approximately 0.5 g) was weighed into a scintillation vial, mixed well with the scintillation solution, and measured using a liquid scintillation counter. […]

For `C[C@H](Nc1ncnc(N)c1C#N)c1cc2ncc(Cl)n2nc1-c1ccccc1` [Amdizalisib], the “average plasma total radioactivity concentration at 96 h post dose” value (still detectable in 4 subjects) was 4.74 ng Eq./mL, the “AUC0-t of total radioactivity” value [1] was 3,900 h ng Eq./mL and the “CL/F of total radioactivity” value [1] was 7.25 L/h. The “Cmax of total radioactivity” value [1] was 368 ng Eq./mL.
